Where a chain is given by its changes, count along the chain named. Read-outs that look alike come from different tables or passages of the source. Where a SMILES comes first, the peptide text is derived from it.
Legend:
[1] = target: T1, hTAS1R2 + hTAS1R3 H721A^ex2 (Homo sapiens, UniProt Q7RTX0+Q8TE23, H721A); experiment: Calcium response (FLIPR), hTAS1R3 mutant coexpressed with hTAS1R2; format: cell-based; details: variant H721A^ex2; for Emax: read-out: maximal signal (% of wt)
T1 construct: expressed in transfected cells; host or cells: HEK293T cells stably expressing G16Gust44
T1 sequence (Q8TE23 20-839): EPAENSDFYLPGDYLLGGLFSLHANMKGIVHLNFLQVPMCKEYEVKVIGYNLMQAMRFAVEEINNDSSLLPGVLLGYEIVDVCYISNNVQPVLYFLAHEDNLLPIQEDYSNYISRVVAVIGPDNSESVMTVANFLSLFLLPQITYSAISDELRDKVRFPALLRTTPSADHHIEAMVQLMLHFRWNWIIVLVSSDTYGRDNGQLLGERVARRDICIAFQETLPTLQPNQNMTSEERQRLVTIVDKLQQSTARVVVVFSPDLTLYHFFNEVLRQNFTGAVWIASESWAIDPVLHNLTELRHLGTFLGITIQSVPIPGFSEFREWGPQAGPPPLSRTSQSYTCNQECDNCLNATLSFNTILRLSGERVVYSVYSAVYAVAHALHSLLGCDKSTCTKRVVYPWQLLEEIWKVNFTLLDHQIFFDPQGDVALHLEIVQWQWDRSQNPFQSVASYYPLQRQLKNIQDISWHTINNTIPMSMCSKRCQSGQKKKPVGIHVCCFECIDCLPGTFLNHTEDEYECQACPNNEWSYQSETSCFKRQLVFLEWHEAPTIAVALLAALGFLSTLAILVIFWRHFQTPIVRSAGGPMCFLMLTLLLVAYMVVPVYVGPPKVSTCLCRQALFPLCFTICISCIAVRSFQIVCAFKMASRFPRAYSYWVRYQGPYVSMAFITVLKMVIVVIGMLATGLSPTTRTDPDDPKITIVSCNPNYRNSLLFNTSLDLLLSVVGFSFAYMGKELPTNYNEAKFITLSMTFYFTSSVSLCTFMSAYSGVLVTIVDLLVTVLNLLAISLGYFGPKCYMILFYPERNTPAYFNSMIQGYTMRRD
T1 sequence (Q7RTX0 21-852 H721A): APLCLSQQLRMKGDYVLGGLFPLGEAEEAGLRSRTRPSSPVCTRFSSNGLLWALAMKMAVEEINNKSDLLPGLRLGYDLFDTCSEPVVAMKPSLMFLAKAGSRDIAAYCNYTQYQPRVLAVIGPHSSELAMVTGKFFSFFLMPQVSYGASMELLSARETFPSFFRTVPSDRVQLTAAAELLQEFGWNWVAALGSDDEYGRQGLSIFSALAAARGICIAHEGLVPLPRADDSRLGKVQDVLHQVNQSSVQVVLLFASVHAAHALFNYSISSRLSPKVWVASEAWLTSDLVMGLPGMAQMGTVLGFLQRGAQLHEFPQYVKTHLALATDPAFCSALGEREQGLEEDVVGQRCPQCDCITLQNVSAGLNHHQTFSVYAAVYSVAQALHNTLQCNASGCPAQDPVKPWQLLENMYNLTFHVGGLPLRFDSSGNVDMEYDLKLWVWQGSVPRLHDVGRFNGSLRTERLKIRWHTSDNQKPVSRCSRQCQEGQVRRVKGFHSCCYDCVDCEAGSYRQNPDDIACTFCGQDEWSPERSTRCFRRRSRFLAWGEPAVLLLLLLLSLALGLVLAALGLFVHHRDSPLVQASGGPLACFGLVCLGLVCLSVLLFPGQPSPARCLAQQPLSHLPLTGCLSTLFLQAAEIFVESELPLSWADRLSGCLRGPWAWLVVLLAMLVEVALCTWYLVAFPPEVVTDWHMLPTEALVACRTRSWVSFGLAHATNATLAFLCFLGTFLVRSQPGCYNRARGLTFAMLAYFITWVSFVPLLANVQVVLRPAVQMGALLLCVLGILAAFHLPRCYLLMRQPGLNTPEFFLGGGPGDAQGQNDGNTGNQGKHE
Method in brief: (§1)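 Each mutant receptor pair was expressed transiently in G16Gust44-expressing HEK293T cells; stimuli dissolved in C1 solution triggered calcium responses, recorded by fluorometric imaging and scaled to baseline fluorescence (ΔF/F) after mock correction, from at least three experiments run in duplicate.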

[2] = target: T2, hTAS1R2 + hTAS1R3 G804V^7.42 (Homo sapiens, UniProt Q7RTX0+Q8TE23, G804V); experiment: as above; format: cell-based; details: for EC50: n.r. = no response to NHDC up to highest tested concentration (6 mM), but responses to other sweeteners
T2 construct: expressed in transfected cells; host or cells: HEK293T cells stably expressing G16Gust44
T2 sequence (Q7RTX0 21-852 G804V): T1 sequence (Q7RTX0 21-852 H721A) with A701H, G784V
T2 sequence (Q8TE23 20-839): T1 sequence (Q8TE23 20-839)
Method in brief: as §1

Compound | EC50 [1] [mM] | Emax [1] [%] | receptor response ([2]; mutant G804V^7.42, any tested concentration) | EC50 ([2]; variant G804V^7.42) | EC50 ([2]; variant G804V^7.42, read-out: EC50) [mM] | Emax ([2]; variant G804V^7.42, read-out: maximal signal (% of wt)) [%]
COc1ccc(CCC(=O)c2c(O)cc(O[C@@H]3O[C@H](CO)[C@@H](O)[C@H](O)[C@H]3O[C@@H]3O[C@@H](C)[C@H](O)[C@@H](O)[C@H]3O)cc2O)cc1O [NHDC, neohesperidin dihydrochalcone] | 0.8 ± 0.3 | 66 ± 10 | did not respond to NHDC at any tested concentration | n.r. |  | 
COC(=O)[C@H](Cc1ccccc1)NC(=O)[C@@H](N)CC(=O)O [aspartame] (HELM PEPTIDE1{D.F.[CO[*:1]]}$$$$V2.0) | 1.6 ± 0.3 | 60 ± 40 |  |  | 1.3 ± 0.3 | 21 ± 2
